In US9199941B2, “Pyrazole indanyl carboxamides” (BAYER CROPSCIENCE AG, priority 2012, dated 2015):
“And” between values parts separate entries of the source, which are not always exact repeats. Equal values may be shown once. Read-outs that look alike come from different tables or passages of the source.

Legend:
[1] = log P by HPLC on reversed phase columns (EEC directive 79/831 Annex V.A8); type: physicochemical
Sphaerotheca fuliginea = assay: In vivo preventive test on Sphaerotheca fuliginea (powdery mildew on cucurbits); details: preventive spray, gherkin plants, grading 12 days after contamination
Protocol: Gherkin plants (“Vert petit de Paris” variety), sown in starter cups on a 50/50 peat soil-pozzolana substrate and grown at 24° C., are treated at the Z11 cotyledon stage by spraying with the active ingredient prepared as described above. Plants, used as controls, are treated with the mixture of acetone/tween/DMSO/water not containing the active material. After 24 hours, the plants are contaminated by spraying the cotyledons with an aqueous suspension of Sphaerotheca fuliginea spores (100 000 spores per ml). The spores are collected from infected plants. The contaminated gherkin plants are incubated at about 20° C. and at 70-80% relative humidity. Grading (% of efficacy) is carried out 12 days after the contamination, in comparison with the control plants.

Uromyces appendiculatus = assay: In vivo preventive test on Uromyces appendiculatus (bean rust); details: preventive spray, bean plants, grading 11 days after contamination
Protocol: Bean plants (“Saxa” variety), sown in starter cups on a 50/50 peat soil-pozzolana substrate and grown at 24° C., are treated at the 2-leaf stage (9 cm height) by spraying with the active ingredient prepared as described above. Plants, used as controls, are treated with the mixture of acetone/tween/DMSO/water not containing the active material. After 24 hours, the plants are contaminated by spraying the leaves with an aqueous suspension of Uromyces appendiculatus spores (150 000 spores per ml). […] Grading (% of efficacy) is carried out 11 days after the contamination, in comparison with the control plants.

Puccinia recondita = assay: In vivo preventive test on Puccinia recondita (brown rust on wheat); details: preventive spray, wheat plants, grading 12 days after contamination
Protocol: Plants, used as controls, are treated with the mixture of acetone/tween/DMSO/water not containing the active material. After 24 hours, the plants are contaminated by spraying the leaves with an aqueous suspension of Puccinia […] spores (100 000 spores per ml). […] Grading (% of efficacy) is carried out 12 days after the contamination, in comparison with the control plants.

Septoria tritici = assay: In vivo preventive test on Septoria tritici (leaf spot on wheat); details: 500 ppm, preventive spray, wheat plants, grading 24 days after contamination
Protocol: Wheat plants (“Scipion” variety), sown in starter cups on a 50/50 peat soil-pozzolana substrate and grown at 22° C., are treated at the 1-leaf stage (10 cm height) by spraying with the active ingredient prepared as described above. Plants, used as controls, are treated with the mixture of acetone/tween/DMSO/water not containing the active material. After 24 hours, the plants are contaminated by spraying the leaves with an aqueous suspension of cryopreserved Septoria tritici spores (500 000 spores per ml). […] Grading (% of efficacy) is carried out 24 days after the contamination, in comparison with the control plants.

Pyrenophora teres = assay: In vivo preventive test on Pyrenophora teres (net blotch on barley); details: 500 ppm, preventive spray, barley plants, incubated 48 hours then 12 days
Protocol: Barley plants (“Plaisant” variety), sown in starter cups on a 50/50 peat soil-pozzolana substrate and grown at 22° C., are treated at the 1-leaf stage (10 cm height) by spraying with the active ingredient prepared as described above. Plants, used as controls, are treated with the mixture of acetone/tween/DMSO/water not containing the active material. After 24 hours, the plants are contaminated by spraying the leaves with an aqueous suspension of Pyrenophora teres spores (12 000 spores per ml). The spores are collected from a 12-day-old culture.

[2] = Table 2, amines of formula (III-a), method [a]: LC-MS at pH 2.7, 0.1% formic acid in water / acetonitrile
[3] = Table 1, compounds of formula (I), method [a]: LC-MS at pH 2.7, 0.1% formic acid in water / acetonitrile

SMILES	logP [1, 2]	logP [1, 3]	Eff. % (Uromyces appendiculatus; 500 ppm) [%]	Eff. % (Puccinia recondita; 500 ppm) [%]	other results
CC(C)C1CCc2c(NC(=O)c3cn(C)nc3C(F)F)cccc21 (centres unmarked) [Example 2]		3.6[a]	100	98	Eff. % (Sphaerotheca fuliginea; 500 ppm): 94%
CC1CC2(CC2(Cl)Cl)c2cccc(NC(=O)c3cn(C)nc3C(F)F)c21 (centres unmarked) [Example 4]		3.5[a]	100	100	Eff. % (Sphaerotheca fuliginea; 500 ppm): 100%; Eff. % (Septoria tritici): 100%
Cn1cc(C(=O)Nc2cccc3c2CCC32CC2(Cl)Cl)c(C(F)F)n1 (centres unmarked) [Example 5]		3.33[a]	100		Eff. % (Sphaerotheca fuliginea; 500 ppm): 100%; Eff. % (Septoria tritici): 71%
CC1CC2(CC2)c2cccc(NC(=O)c3cn(C)nc3C(F)(F)F)c21 (centres unmarked) [Example 10]		3.35[a]	99	100	
Cc1nn(C)c(C)c1C(=O)Nc1cccc2c1CCC21CC1 [Example 13]		2.57[a]	100	89	
Cc1nn(C)c(C)c1C(=O)Nc1cccc2c1C(C)CC2CC(C)C (centres unmarked) [Example 14]		3.87[a]	99	98	
Cc1nn(C)c(F)c1C(=O)Nc1cccc2c1CCC21CC1 [Example 15]			100	94	
Cc1nn(C)c(C)c1C(=O)Nc1cccc2c1C(C)CC2C(C)(C)C (centres unmarked) [Example 16]		4.13[a]	100	98	
Cn1cc(C(=O)Nc2cccc3c2CCC32CC2)c(C(F)F)n1 [Example 17]		2.96[a]	100	98	Eff. % (Pyrenophora teres): 70%
CCCCON=C1CCc2c(NC(=O)c3cn(C)nc3C(F)F)cccc21 [Example 21]		3.59[a]			Eff. % (Septoria tritici): 70%
Cc1nn(C)c(C)c1C(=O)Nc1cccc2c1C(C)CC21CC1 (centres unmarked) [Example 22, 1,3,5-trimethyl-N-(3′-methyl-2′,3′-dihydrospiro[cyclopropane-1,1′-inden]-4′-yl)-1H-pyrazole-4-carboxamide]			100	81	chromatographic logP ([1]; pH 2.7): 2.7
CON=C1CCc2c(NC(=O)c3cn(C)nc3C(F)F)cccc21 [Example 23]		2.59[a]		94	
Cc1nn(C)c(O)c1C(=O)Nc1cccc2c1CCC21CC1 [Example 26]		2.04[a]			Eff. % (Septoria tritici): 71%
Cn1cc(C(=O)Nc2cccc3c2CCC3C(C)(C)C)c(C(F)F)n1 (centres unmarked) [Example 28]		3.94[a]	100	100	Eff. % (Sphaerotheca fuliginea; 500 ppm): 100%; Eff. % (Septoria tritici): 86%
CCON=C1CC(C)c2c(NC(=O)c3c(C)nn(C)c3F)cccc21 (centres unmarked) [Example 29]		2.76[a]	80	81	Eff. % (Pyrenophora teres): 75%
CCCON=C1CCc2c(NC(=O)c3cn(C)nc3C(F)F)cccc21 [Example 30]		3.15[a]	95	71	Eff. % (Sphaerotheca fuliginea; 500 ppm): 90%; Eff. % (Septoria tritici): 85%
CON=C1CC(C)c2c(NC(=O)c3cn(C)nc3C(F)F)cccc21 (centres unmarked) [Example 31]		2.45[a]	99		Eff. % (Septoria tritici): 79%
CC(C)CC1CCc2c(NC(=O)c3cn(C)nc3C(F)F)cccc21 (centres unmarked) [Example 32]		4.11[a]	100	98	Eff. % (Sphaerotheca fuliginea; 500 ppm): 98%; Eff. % (Septoria tritici): 71%
Cc1nn(C)c(F)c1C(=O)Nc1cccc2c1C(C)CC2CC(C)(C)C (centres unmarked) [Example 35]		4.61[a]	100	98	Eff. % (Sphaerotheca fuliginea; 500 ppm): 100%
Cn1cc(C(=O)Nc2cccc3c2C(C)(C)CC3)c(C(F)F)n1 [Example 36]		2.8[a]			
Cn1cc(C(=O)Nc2cccc3c2CCC3O)c(C(F)F)n1 (centres unmarked) [Example 37]		1.61[a]			
Cc1nn(C)c(C)c1C(=S)Nc1cccc2c1C(C)CC21CC1 (centres unmarked) [Example 39, 1,3,5-trimethyl-N-(3′-methyl-2′,3′-dihydrospiro[cyclopropane-1,1′-inden]-4′-yl)-1H-pyrazole-4-carbothioamide]			100	89	chromatographic logP ([1]; pH 2.7): 3.06
Cc1nn(C)c(C)c1C(=S)Nc1cccc2c1C(C)CC2CC(C)C (centres unmarked) [Example 40]		4.25[a]	100	98	
CC1CC2(CC2)c2cccc(N)c21 (centres unmarked) [Example III-a-16, 3′-methyl-2′,3′-dihydrospiro[cyclopropane-1,1′-inden]-4′-amine]					chromatographic logP ([1]; reversed phase HPLC columns, Table 2, amines of formula (III-a), method [a]: LC-MS at pH 2.7, 0.1% formic acid in water / acetonitrile, read-out: logP): 1.93

Continued, in another order:

logP [1, 2]	logP [1, 3]	SMILES	Eff. % (Uromyces appendiculatus; 500 ppm) [%]	Eff. % (Puccinia recondita; 500 ppm) [%]	other results
3.04 and 2.94		CC1CC2(CC2(Cl)Cl)c2cccc(N)c21 (mixture of isomers) [Example III-a-1]			
	4.87[a]	Cc1nn(C)c(F)c1C(=S)Nc1cccc2c1C(C)CC2CC(C)(C)C (centres unmarked) [Example 43]	100	98	Eff. % (Sphaerotheca fuliginea; 500 ppm): 100%
	4.04[a]	CC1CC2(CC2)c2cccc(NC(=O)c3c(C4CC4)nn(C)c3Cl)c21 (centres unmarked) [Example 45]			
	3.44[a]	Cc1nn(C)c(Cl)c1C(=O)Nc1cccc2c1C(C)CC21CC1 (centres unmarked) [Example 47]			Eff. % (Uromyces appendiculatus; 100 ppm): 100%; Eff. % (Puccinia recondita; 100 ppm): 95%
	2.55[a]	Cc1c(C(=O)Nc2cccc3c2C(C)CC32CC2)cnn1C (centres unmarked) [Example 48]			Eff. % (Sphaerotheca fuliginea; 100 ppm): 81%; Eff. % (Uromyces appendiculatus; 100 ppm): 100%; Eff. % (Puccinia recondita; 100 ppm): 98%
	4.31[a]	CC1CC2(CCCC2)c2cccc(NC(=O)c3cn(C)nc3C(F)F)c21 (centres unmarked) [Example 49]			Eff. % (Puccinia recondita; 100 ppm): 89%
	3.01[a]	CC1CCc2c(NC(=O)c3cn(C)nc3C(F)F)cccc21 (centres unmarked) [Example 50]			Eff. % (Puccinia recondita; 100 ppm): 78%
	2.99[a]	CCc1nn(C)cc1C(=O)Nc1cccc2c1C(C)CC21CC1 (centres unmarked) [Example 51]			
	2.99[a]	CCc1c(C(=O)Nc2cccc3c2C(C)CC32CC2)cnn1C (centres unmarked) [Example 54]			
	3.72[a]	CC1CC2(CC2)c2cccc(NC(=O)c3c(C(F)(F)F)nn(C)c3F)c21 (centres unmarked) [Example 55]			Eff. % (Puccinia recondita; 100 ppm): 85%
	3.29[a]	CC(C)c1nn(C)cc1C(=O)Nc1cccc2c1C(C)CC21CC1 (centres unmarked) [Example 56]			
1.37[a]		Nc1cccc2c1CCC21CC1 [Example III-a-2]			
2.73[a]		CC1CC(C(C)C)c2cccc(N)c21 (centres unmarked) [Example III-a-11]			
2.86[a]		CC1CC(C(C)C)c2cccc(N)c21 (centres unmarked) [Example III-a-12]			
2.64[a]		CC(C)CC1CCc2c(N)cccc21 (centres unmarked) [Example III-a-14]			
1.88[a]		CCC1(C)CCc2c(N)cccc21 (centres unmarked) [Example III-a-17]			
2.78[a]		CCCON=C1CC(C)c2c(N)cccc21.Cl (centres unmarked) [Example III-a-18]			
2.26[a]		CCON=C1CC(C)c2c(N)cccc21.Cl (centres unmarked) [Example III-a-19]			
2.4[a]		CC(C)(C)C1CCc2c(N)cccc21 (centres unmarked) [Example III-a-21]			
3.83[a]		CC1CC(CC(C)(C)C)c2cccc(N)c21 (centres unmarked) [Example III-a-22]			
3.42[a]		CC(C)CC1CC(C)c2c(N)cccc21 (centres unmarked) [Example III-a-23]			
2.26[a]		CCCON=C1CCc2c(N)cccc21.Cl [III-a-7]			
2.86[a]		CCCCON=C1CCc2c(N)cccc21.Cl [III-a-8]			
1.26[a]		CON=C1CCc2c(N)cccc21.Cl [III-a-9]			
1.75[a]		CCON=C1CCc2c(N)cccc21.Cl [III-a-10]			
1.76[a]		CC1CC(C)c2c(N)cccc21 (centres unmarked) [III-a-15]			
1.76[a]		CON=C1CC(C)c2c(N)cccc21.Cl (centres unmarked) [III-a-20]			
